Source: patent publication US6521593B1, “Methods for inhibiting brain tumor growth” (Childrens Hospital Los Angeles, priority 1999, dated 2003)

How the values were obtained:
[1] = tested on: DAOY medulloblastoma cells; experiment: Apoptosis of cells grown on ECM (FIG. 8), DAOY; format: cell-based, human; details: 20 μg/ml, 24 hours
Protocol: (§1) Non tissue culture dishes were incubated 1 hour at 37° C. with vitronectin, tenascin, fibronectin or collagen I (10 μg/ml), then washed with PBS. After the wash, 5×10^5 cells /well were plated and incubated for 16 hours at 37° C. The cultures were then washed and an adhesion buffer containing 20 μg/ml of pentapeptide or control peptide were added and incubated for an additional 2-24 hours. The cultures were then washed twice with adhesion buffer and stained with Crystal violet and the OD 600 determined. The more adherent cells are present, the higher the OD. Data represent adherent cells after 8-hour incubation. U87=glioblastoma and DAOY=medulloblastoma.
(§2) Test conditions were as in FIG. 7, except that detached cells and adherent cells were combined after trypsinisation. The cells were then washed, suspended in 50 μl PBS and centrifuged in glass cover slides (cytospin). After fixation with 4% paraformaldehyde, the cells were stained for apoptosis using the Boehringer Apoptosis Kit. Results are expressed in a percentage of apoptotic cells versus total number of cells. Experiment was done after 24 hours of incubation with the peptides.

DAOY cells [2] = experiment: Heterotopic (subcutaneous) tumor model, DAOY cells in nude mice
primary HBEC = experiment: Apoptosis on vitronectin (Annexin V-FITC FACS), HBEC; format: cell-based, human; details: 20 μg/ml, 4 hrs
Protocol: (§3) Apoptosis: Adhesion conditions were as above, except that 12 well plates covered with vitronectin and 5×10^5 cells/well were plated in adhesion buffer. […] Attached cells were trypsinized and combined with the detached cells in the supernatant and then examined for the presence of apoptotic cells using the Apo Alert Annexin V-FITC apoptosis kit (Clontech).
(§4) FIGS. 6a-6d show the integrin profile (a), effect of αv-antagonist on adhesion to (b), migration on (c) and cell viability on vitronectin (d) for brain tumor and brain capillary endothelial cells. Both DAOY and U87MG tumor cells and brain capillary cells express the integrins αvβ3 and αvβ5 (a). […] Cell viability was tested by letting the cells attach to vitronectin for 1 hour, and then exposing them for 4 hours to the control peptide or αv-antagonist (20 μg/ml) (d). Adherent and floating cells were combined and examined by FACS for apoptosis, using FITC labeled anti-annexin V and propidium iodide.
(§5) We have previously shown that pre-incubation of brain tumor or capillary cells with the cRGD peptide, or the combination of anti-αvβ3 and anti-αvβ5 antibodies, prevents cell adhesion to vitronectin. […] Attached cells were combined after trypsinization with floating cells and the number of apoptotic cells was determined by FACS, using anti-annexin V-FITC antibody and propidium iodide (Clontech Apo alert Annexin V-FITC detection apoptosis kit).

[3] = tested on: human brain endothelial cells (HBEC); experiment: Vitronectin migration (Boyden chamber), HBEC; format: cell-based; details: test substance 20 μg/ml, 4 hrs
Protocol: (§6) Migration: Transwell polycarbonate filters (8 μm pore size) were incubated for 30 min. at 37° C. with vitronectin in PBS (1 μg/ml on the upper side and 10 μg on the bottom side), blocked for 30 min. with 1% heat denatured BSA and washed with PBS. Test cells (5×10^5/well) were added in adhesion buffer containing the test substances indicated (20 μg/ml) and incubated for 4 hrs at 37° C. with the lower chamber containing adhesion buffer. Cells in the upper chamber were removed with a cotton swab and cells on the bottom part of the filter were fixed and stained with crystal violet and the number of migrated cells determined by counting.
(§7) To address whether αvβ3 and αvβ5 modulate migration on vitronectin, independent of adhestion, we tested the same cells on vitronectin-coated membranes in Boyden chambers while in the presence of blocking antibodies or cRGD. […] Since LM-609, in the absence of P1-F6, was incapable of blocking adhesion, this anti-migratory effect must be mediated through a distinct pathway which is independent of forces responsible for adhesion.

[4] = tested on: human brain endothelial cells (HBEC); experiment: Vitronectin adhesion, HBEC; format: cell-based; details: test substance 20 μg/ml
Protocol: (§8) Adhesion: Assay conditions were as previously described (15). Non-tissue culture treated wells incubated overnight at 4° C. with vitronectin (1-10 μg/ml PBS), washed and blocked for 30 min. with heat denatured 1% BSA in PBS, followed by washing with PBS. Control and test cells, pre-incubated at 37° C. with the test substance (20 μg/ml) in adhesion buffer for 30 min. were plated into wells (5×10^4 cells/well) and incubated for 1 hr at 37° C. After gentle washing of the wells with adhesion buffer, adhering cells were fixed and stained with crystal violet, the dye solubilized in methanol and the OD determined at […].
(§9) To determine if αvβ3 and αvβ5 regulate DAOY, U87MG and HBEC adhesion to vitronecin, the cells were plated in vitronectin-coated wells and allowed to adhere in the presence or absence of either blocking antibodies to αvβ3 (LM-609) and αvβ5 (P1-F6) or the cRGD peptide.

DAOY cells [5] = experiment: Vitronectin adhesion, DAOY; format: cell-based, human; details: test substance 20 μg/ml
Protocol: as §8, §9

[6] = tested on: U87MG human brain tumor cells; experiment: CAM assay: angiogenesis and growth of U87MG tumors on chick chorioallantoic membrane; format: in vivo; details: 100 μg into a CAM vein, 6 days
Protocol: (§10) CAM assay: Egg supplier and preparation have been described earlier (23). Tumor cells were plated in 50 μl PBS at 4×10^6 cells/egg for DAOY and 3.5×10^6 cells/egg for U87MG. Cells were grown to tumors for 7 days, then harvested under sterile conditions, trimmed to similar sizes and […] onto the CAM of 10-day-old embryos. […] Tumors were photographed in situ after 7 days of growth, then harvested, weighed and fixed in 4% buffered formalin and embedded in paraffin. After serial sectioning, slides were stained with hematoxilin and eosin.
(§11) To assess the effect of αv antagonism on brain tumor associated angiogenesis, DAOY and U87MG human brain tumor cells were grown on chick chorioallantoic membranes (CAMs). The tumors were allowed to grow for 7 days before they were removed and reimplanted onto fresh CAMs. 24 hours after transfer, 100 μg of either the active cRGD peptide or control peptide (cRAD) was injected into a CAM vein. Tumors were grown for an additional 6 days and then weighed and analyzed for vascularization. […] In contrast to control tumors, which increased 80% in weight, αv-antagonist treated tumors decreased 30% in weight (FIG. 1b).
(§12) FIGS. 1a and 1b show the inhibition of angiogenesis (a) and tumor growth on the CAM (b) by an αv-antagonist. Brain tumors grown on CAMs were harvested and cut to similar sizes and placed on fresh CAMs of 10-day-old chicken eggs. The following day, 100 μg of active αv-inhibitor or control peptide were injected into the chicken veins and grown for another 6 days. […] Tumors placed on the CAM were weighed at the beginning and end of the experiment (b). The weight of the tumors treated with the control peptide increased by 80% for both tumor types (left, n=8), whereas it decreased by about 30% when the active peptide was administered (right, n=8).

U87MG cells [7] = experiment: Vitronectin adhesion, U87MG; format: cell-based, human; details: test substance 20 μg/ml
Protocol: as §8, §9

U87 glioblastoma cells [8] = experiment: Tumor cell adhesion to ECM proteins (FIG. 7), U87; format: cell-based, human; details: U87 on vitronectin and tenascin, 20 μg/ml, 8-hour incubation
Protocol: as §1

[9] = tested on: DAOY human brain tumor cells; experiment: CAM assay: angiogenesis and growth of DAOY tumors on chick chorioallantoic membrane; format: in vivo; details: 100 μg into a CAM vein, 6 days
Protocol: as §10, §11, §12

[10] = tested on: M21L αv neg melanoma cells; experiment: Survival of nude mice with αv-negative melanoma cells implanted into the brain; format: in vivo; details: 10^6 cells into forebrain of nude mice
Text: (§13) Mice were sacrificed when becoming cachectic and the presence of tumor was verified by autopsy.

DAOY cells [11] = experiment: Orthotopic brain tumor model, DAOY cells injected intracerebrally in nu/nu mice; details: for Tumor size (mm) Brain: nu/nu mice, 100 μg/mouse daily i.p. from day 7, 4 weeks total tumor growth
Protocol: (§14) Tumor cells (10^6/10 μl PBS) were injected intracerebrally at the coordinates mentioned. […] The animals were then sacrificed by CO2 anesthesia, the brains removed and either snap frozen in liquid nitrogen or fixed in buffered formalin, embedded in paraffin and the cut sections stained with Hematoxylin-Eosin.
DAOY and U87MG cells (10^6 cells/mouse) were stereotactically injected into the right frontal cortex of nu/nu mice in order to establish a system that recapitulates the brain microenvironment. […] For each time, point n=5 or 6.
(§15) Additional animals were tested for survival. Survival was measured as the time point in which mice required sacrifice, due to a moribund state. […] N for DAOY and U87MG control is 16 mice each and 32 mice for treated DAOY and 24 for treated U87MG.

U87 glioblastoma cells [12] = experiment: Apoptosis of cells grown on ECM (FIG. 8), U87; format: cell-based, human; details: 20 μg/ml, 24 hours
Protocol: as §1, §2

U87MG cells [13] = experiment: Orthotopic brain tumor model, U87MG cells injected intracerebrally in nu/nu mice
Protocol: as §14
DAOY and U87MG cells (10^6 cells/mouse) were stereotactically injected into the right frontal cortex of nu/nu mice in order to establish a system that recapitulates the brain microenvironment.
as §15
Tumors were removed after 2 weeks of treatment, fixed in buffered formalin, embedded in paraffin and 5 μm sections obtained.

[14] = tested on: M21L αv pos melanoma cells; experiment: Survival of nude mice with αv-positive melanoma cells implanted into the brain; format: in vivo; details: 10^6 cells into forebrain of nude mice
Text: as §13

brain capillary cells = experiment: Apoptosis of cells grown on ECM (FIG. 8), brain capillary cells; format: cell-based, human; details: 20 μg/ml, 24 hours
Protocol: as §1, §2

U87MG cells [15] = experiment: Vitronectin migration (Boyden chamber), U87MG; format: cell-based, human; details: test substance 20 μg/ml, 4 hrs
Protocol: as §6, §7

DAOY cells [16] = experiment: Apoptosis on vitronectin (Annexin V-FITC FACS), DAOY; format: cell-based, human; details: 20 μg/ml, 4 hrs
Protocol: as §3, §4, §5

DAOY cells [17] = experiment: Vitronectin migration (Boyden chamber), DAOY; format: cell-based, human; details: test substance 20 μg/ml, 4 hrs
Protocol: as §6, §7

[18] = tested on: DAOY medulloblastoma cells; experiment: Tumor cell adhesion to ECM proteins (FIG. 7), DAOY; format: cell-based, human; details: DAOY on vitronectin and tenascin, 20 μg/ml, 8-hour incubation
Protocol: as §1

U87MG cells [19] = experiment: Heterotopic (subcutaneous) tumor model, U87MG cells in nude mice
Protocol: Subcutaneous tumor growth: For subcutaneous tumor growth, the cells (10^6 mouse) were injected s.c. below the right shoulder pad immediately following intracerebral injection.
To further investigate this finding, we simultaneously injected the DAOY and U87MG cells intracranially and subcutaneously before initiating treatment with the peptides as outlined under the orthotopic model.

[20] = tested on: C6 and 9L rat glioma xenografts; details: 1 mg/mouse/day; cited from earlier work
[21] = 100 μg/mouse/day from day 3, listed as active pentapeptide

CC(C)[C@H]1C(=O)N[C@@H](CCCN=C(N)N)C(=O)NCC(=O)N[C@@H](CC(=O)O)C(=O)N[C@H](Cc2ccccc2)C(=O)N1C [EMD 121974, cyclo(Arg-Gly-Asp-D-Phe-[N-Me]-Val)]
cell survival / apoptotic cells ([1]; DAOY grown on collagen I or fibronectin): did not alter the survival | cell survival / apoptotic cells ([1]; DAOY grown on vitronectin or tenascin): increased number of dead cells | average size of subcutaneous tumors (DAOY cells [2]; DAOY injected into brain and subcutis, treatment from day 7, week 4 (FIG. 5)): 18 mm^3 | time to sacrifice necessitated by progressive growth of subcutaneous tumors (DAOY cells [2]; DAOY injected intracranially and subcutaneously): 10 weeks | inhibition of subcutaneous tumor growth (DAOY cells [2]; DAOY s.c. only, 100 μg/mouse daily i.p. from day 7, after 6 weeks): no inhibition of tumor growth | Tumor size (mm) Subcutis (DAOY cells [2]; DAOY s.c., 100 μg/mouse daily i.p.): 17 ± 0.84 mm | apoptosis after attachment to vitronectin (primary HBEC): significant apoptosis | migration on vitronectin [3]: significantly inhibited | adhesion to vitronectin [4]: Significant inhibition | adhesion to vitronectin (DAOY cells [5]): Significant inhibition | tumor-associated angiogenesis (stereomicroscope) [6]: significant suppression of angiogenesis | decrease of tumor weight ([6]; n=8, listed as active peptide): about 30% | decrease of tumor weight ([6]; n=8, listed as αv-antagonist): 30% | adhesion to vitronectin (U87MG cells [7]): Significant inhibition | adhesion to ECM (adherent cells, OD 600) (U87 glioblastoma cells [8]): detached from vitronectin and tenascin | tumor-associated angiogenesis (stereomicroscope) [9]: significant suppression of angiogenesis | decrease of tumor weight ([9]; n=8, listed as active peptide): about 30% | decrease of tumor weight ([9]; n=8, listed as αv-antagonist): 30% | Survival ([10]; 100 μg/mouse/day from day 3): 15.7 ± 3.8 days | Survival [10, 21]: 15 days | Mouse weight (gr) (DAOY cells [11]; 100 μg/mouse daily i.p.): 21 ± 0.89 gr | mean time to the onset of neurologic symptoms (DAOY cells [11]; 100 μg/mouse daily i.p.): no evidence of neurological symptoms at any time | mouse weight (DAOY cells [11]; 100 μg/mouse daily i.p., baseline 21 g): 21 g | survival (time point at which mice required sacrifice, moribund state) (DAOY cells [11]; i.p. 100 μg/mouse/day from day 7): ≥ 24 weeks | Tumor size (mm) Brain (DAOY cells [11]; listed as active peptide): absence or microscopic residual disease | Tumor size (mm) Brain (DAOY cells [11]; listed as αv-antagonist): no tumor or only scant residual tumor cells | size of residual tumor foci (DAOY cells [11]; treated group): smaller than 1 mm^3 | cell survival / apoptotic cells (U87 glioblastoma cells [12]; U87 grown on collagen I or fibronectin): did not alter the survival | cell survival / apoptotic cells (U87 glioblastoma cells [12]; U87 grown on vitronectin or tenascin): increased number of dead cells | Mouse weight (gr) (U87MG cells [13]; U87MG, 100 μg/mouse daily i.p.): 20 ± 0.71 gr | mean time to the onset of neurologic symptoms (U87MG cells [13]; U87MG, 100 μg/mouse daily i.p.): no evidence of neurological symptoms at any time | mouse weight (U87MG cells [13]; U87MG, 100 μg/mouse daily i.p., baseline 21 g): 21 g | survival (time point at which mice required sacrifice, moribund state) (U87MG cells [13]; U87MG, i.p. 100 μg/mouse/day from day 3): ≥ 15 weeks | Tumor size (mm) Brain (U87MG cells [13]; U87MG, nu/nu mice, 100 μg/mouse daily i.p. from day 3, 4 weeks total tumor growth, listed as αv-antagonist): no tumor or only scant residual tumor cells | size of residual tumor foci (U87MG cells [13]; U87MG, treated group): smaller than 1 mm^3 | CD31 positive vessels in tumor sections (immunohistochemistry) (U87MG cells [13]; U87 brain tumors, 100 μg/mouse/day from day 7, 2 weeks of treatment, p<0.005): very few such vessels | apoptotic (dead) cells in tumor sections (U87MG cells [13]; U87 brain tumors, 100 μg/mouse/day from day 7, 2 weeks of treatment, p<0.02): significantly more dead cells | Survival ([14]; 100 μg/mouse/day from day 3): 36.5 ± 2.9 days | Survival [14, 21]: 36 days | cell survival / apoptotic cells (brain capillary cells; brain capillary cells grown on collagen I or fibronectin): did not alter the survival | cell survival / apoptotic cells (brain capillary cells; brain capillary cells grown on vitronectin or tenascin): increased number of dead cells | migration on vitronectin (U87MG cells [15]): significantly inhibited | apoptosis after attachment to vitronectin (DAOY cells [16]): significant apoptosis | migration on vitronectin (DAOY cells [17]): significantly inhibited | adhesion to ECM (adherent cells, OD 600) [18]: detached from vitronectin and tenascin | time to sacrifice necessitated by progressive growth of subcutaneous tumors (U87MG cells [19]; U87MG injected intracranially and subcutaneously): 10 weeks | inhibition of subcutaneous tumor growth (U87MG cells [19]; U87MG s.c. only, 100 μg/mouse daily i.p. from day 3, after 6 weeks): no inhibition of tumor growth | Tumor size (mm) Subcutis (U87MG cells [19]; U87MG s.c., 100 μg/mouse daily i.p.): 19 ± 0.77 mm

Angiostatin
growth inhibition of intracranial glioma xenografts [20]: considerable growth inhibition
